Laboratory results: article PMC8781304, “Arene-Ruthenium(II) Complexes with Carbothiamidopyrazoles as a Potential Alternative for Antibiotic Resistance in Human” (Molecules, 2022)
pIC50: −log10 of the molar value. Several values for one entry are separate records, joined by “and”; a condition that tells them apart may be missing. Equal entries are not always repeated.

Test system: human foreskin fibroblast HFF-1 (ATCC-SCRC-1041)
Assay: Cytotoxicity, MTT reduction assay
Assay type: cell-based
Settings: HFF-1, MTT; for pIC50: 24 h, tested 3.9–500 μM
Experimental: The cytotoxicity of arene-ruthenium(II) complexes 3a–3d was determined using the MTT (3-(4,5-dimethylthiazol-2-yl)-2,5-diphenyltetrazolium bromide; Sigma, St. Louis, MO, USA) reduction assay and a human foreskin fibroblast HFF-1 culture (ATCC-SCRC-1041) (LGC Standards Sp. z o.o., Poland) at a final concentration range of 3.9–500 µM. The HFF-1 cells were cultured in Dulbecco’s Modified Eagle’s Medium (DMEM; Sigma, St. Louis, MO, USA) with 15% fetal bovine serum (FBS; BioWest, Nuaillé, France) and penicillin/streptomycin (100 × stock solution; BioWest, Nuaillé, France), 1 × 10^6 cell/mL (100 µL/well) in 96-well tissue culture plates (Nunc, Roskilde, Denmark) for 24 h at 37 °C/5% CO2. The cells were then exposed to arene-ruthenium(II) complexes for 24 h at 37 °C. The control (untreated) cells were exposed to culture medium alone or culture medium containing 2% DMSO to exclude the effect of the solvent used to prepare the stock solutions of the tested complexes. Next, fresh culture medium (100 µL/well) and MTT (1.5 mg/mL, 50 µL/well) were added, and cells were incubated for two hours under the above conditions. MTT was […] blue formazan crystals produced by the metabolically active cells. Finally, the MTT solution was removed and replaced with 100 µL/well of 20% sodium dodecyl sulfate (SDS; Sigma, St. Louis, MO, USA) for 24 h (room temperature) to dissolve the blue formazan. Based on the absorbance (λ = 550 nm) of tested and control cells (100% viability), the percentage of cell viability after exposure was calculated. For each sample, the experiment was performed twice.

Compound	Concentration above which cytotoxicity was seen	pIC50
Cc1cc(C)[n+]2n1C(N)=[S+][Ru-]2[Cl].Cc1ccc(C(C)C)cc1.F[P-](F)(F)(F)(F)F [Compound 3a]	above 250 μM	3.42 and < 3.46
CCc1cc(CC)[n+]2n1C(N)=[S+][Ru-]2[Cl].Cc1ccc(C(C)C)cc1.F[P-](F)(F)(F)(F)F [Compound 3b]	above 250 μM	3.45 and < 3.46
[(η^6-p-cymene)Ru(1-[amino(thioxo)methyl]-5-hydroxy-3-phenyl-1H-pyrazole)PF6 [Compound 3c]		3.58
